This note sets out measurements from paper PMC8151276, “An Integrated Approach toward NanoBRET Tracers for Analysis of GPCR Ligand Engagement” (Molecules, 2021).

Assay type in all cases: binding
In assay [1] the target is T1, CCR2 (Homo sapiens, UniProt P41597).
T1 construct: purchased Promega (in-house HiBiT-GPCR construct library, NanoBRET)
The assay is described as follows: NanoBRET screen HiBiT-CCR2 in HEK293. On the procedure: (§1) Each tracer candidate was screened across the entire library of HiBiT-GPCR constructs using NanoBRET as the detection modality. As depicted in Figure 4A, the specificity of interactions was evaluated through decrease in BRET due to competitive displacement of a bound tracer by excess parental compound. Each tracer was analyzed for binding to each HiBiT-GPCR fusion in the absence and in the presence of competing parental compound. Briefly, HEK293 cells were transfected with HiBiT-GPCR constructs diluted into promoterless DNA to reduce expression and maximize translocation to the cell surface. Each tracer candidate was then screened at concentrations of 1 μM and 0.1 μM across cells expressing these fusions. Cells were treated for 1.5 h with tracer either alone or in the presence of 20 μM competing parental compound (i.e., control). BRET was measured upon addition of purified LgBiT and subsequent complementation with HiBiT genetically fused to a GPCR. The specificity of interactions was assessed through a decrease in BRET signal due to competitive displacement of the bound tracer. To further gauge the robustness of these interactions, the fold response over the control (i.e., BRETtracer/BRETcontrol) was calculated. We chose a 1.5-fold response, which translates to ≥7-fold signal over noise as the minimal threshold required to score an interaction as positive. […]. Below we highlight the screening results obtained for our exemplary fluorescent tracers based on Clozapine, Amitriptyline and AZD1283.
(§2) HiBiT-GPCR DNA constructs were diluted in 10 mM Tris pH 8 to a final concentration of 0.01 μg/μL, arrayed in 96-well plates and stored at −20 °C. For transfection, HEK293 cells were suspended in Opti-MEM (without phenol red) supplemented with 2% fetal bovine serum (Seradigm) and 100 units/mL penicillin–streptomycin (Gibco) at a final concentration of 220,000 cells/mL and dispensed into white 96-well plates at 90 μL/well. Subsequent transfections and screens were carried using an Agilent Bravo Automated Liquid Handling Platform. First, the 96-well HiBiT DNA arrays were diluted 25-fold in Opti-MEM (without serum or phenol red) to a final concentration of 0.0004 μg/μL and 20 μL of the diluted DNAs were transferred into new 96-well plates. Next, promoterless carrier DNA (1 μg/μL) was diluted 25-fold (0.04 μg/μL) and then dispensed into the diluted arrays at 20 μL/well. Following brief mixing, Viafect transfection reagent (Promega) diluted 16-fold into Opti-MEM was dispensed into the plates at 40 μL/well. After mixing by pipetting, plates were incubated for 10 min on the pipetting station deck. The DNA-transfection reagent complexes were then added to plates containing cells. To facilitate the screen, 10 μL of DNA-transfection reagent complexes were added in duplicates to the top 4 and bottom 4 rows, resulting in two identical 48-well arrays per plate. Plates with transfected cells were incubated for 18–20 h at 37 °C/5% CO2. A screen of each tracer across the entire library using two different concentrations requires duplicate plates of transfected cells. Depending on the number of tracers being screened, transfections can be scaled up using the same ratios. The next day, for each tracer, four 20× screening solutions in tracer dilution buffer (Promega) were prepared: two duplicates at final concentration of 20 μM and two duplicates at a final concentration of 2 μM. A competing unmodified compound was added to one of each duplicate at a final concentration of 400 μM. The four resulting solutions were diluted 4-fold in Opti-MEM without serum or phenol red to generate 5× solutions (5 µM and 0.5 µM tracer +/− 100 μM competing compound). To screen the library, a BioTek MultiFlo FX liquid dispenser was used to dispense 22.5 µL of tracer solution to the top 4 rows and 22.5 µL tracer + competing compound solution to the 4 bottom rows. Plates were briefly mixed on an orbital shaker and incubated for 1.5 h at room temperature. […]

Assay [2] concerns the target T2, DRD5 (Homo sapiens, UniProt P21918).
T2 construct: purchased Promega (in-house HiBiT-GPCR construct library, NanoBRET)
The assay is described as follows: NanoBRET screen HiBiT-DRD5 in HEK293. As to the method:
as §1, §2
In general terms: In BRET a luciferase serves as donor, and the signal depends on an acceptor being close.

In assay [3] the target is T3, HCRTR1 (Homo sapiens, UniProt O43613).
T3 construct: purchased Promega (in-house HiBiT-GPCR construct library, NanoBRET)
T3 sequence (O43613 1-425): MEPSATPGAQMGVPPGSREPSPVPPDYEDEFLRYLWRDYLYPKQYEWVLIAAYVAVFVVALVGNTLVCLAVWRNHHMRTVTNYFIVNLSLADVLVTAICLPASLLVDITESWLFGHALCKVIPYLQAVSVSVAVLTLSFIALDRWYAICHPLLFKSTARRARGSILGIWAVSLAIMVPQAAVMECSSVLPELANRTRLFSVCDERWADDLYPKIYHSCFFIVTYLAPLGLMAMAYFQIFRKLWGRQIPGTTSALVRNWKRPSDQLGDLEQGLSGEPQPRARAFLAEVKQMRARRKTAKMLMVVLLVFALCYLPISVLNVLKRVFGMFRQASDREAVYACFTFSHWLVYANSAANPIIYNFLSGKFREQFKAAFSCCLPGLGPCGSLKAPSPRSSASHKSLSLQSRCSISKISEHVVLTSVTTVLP
Briefly: NanoBRET screen HiBiT-HCRTR1 in HEK293. As to the method:
as §1, §2

For assay [4], the target named is T4, CHRM3 (Homo sapiens, UniProt P20309).
T4 construct: purchased Promega (in-house HiBiT-GPCR construct library, NanoBRET)
The assay is described as follows: NanoBRET screen HiBiT-CHRM3 in HEK293.

For assay [5], the target named is T5, HRH1 (Homo sapiens, UniProt P35367).
T5 construct: purchased Promega (in-house HiBiT-GPCR construct library, NanoBRET)
Briefly: NanoBRET screen HiBiT-HRH1 in HEK293.

For assay [6], the target named is T6, BDKRB1 (Homo sapiens, UniProt P46663).
T6 construct: purchased Promega (in-house HiBiT-GPCR construct library, NanoBRET)
T6 sequence (P46663 1-353): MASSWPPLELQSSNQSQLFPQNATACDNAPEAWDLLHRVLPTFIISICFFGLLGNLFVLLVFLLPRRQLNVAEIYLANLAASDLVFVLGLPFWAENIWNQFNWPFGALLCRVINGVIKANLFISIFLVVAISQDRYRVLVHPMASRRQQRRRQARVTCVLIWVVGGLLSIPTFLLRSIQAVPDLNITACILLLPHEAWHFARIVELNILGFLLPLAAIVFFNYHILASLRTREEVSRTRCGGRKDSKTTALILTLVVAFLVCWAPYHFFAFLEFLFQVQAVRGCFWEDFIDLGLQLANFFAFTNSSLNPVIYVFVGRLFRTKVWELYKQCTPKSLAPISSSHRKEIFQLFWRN
Briefly: NanoBRET screen HiBiT-BDKRB1 in HEK293. As to the method:
as §1, §2

The mark [7] stands for this setting: tracer at 0.1μM, listed as amitriptyline-b-2-NB590.
The mark [8] stands for this setting: tracer at 1μM, listed as amitriptyline-b-2-NB590.

Structures are written as SMILES.

T2 sequence (P21918 whole entry): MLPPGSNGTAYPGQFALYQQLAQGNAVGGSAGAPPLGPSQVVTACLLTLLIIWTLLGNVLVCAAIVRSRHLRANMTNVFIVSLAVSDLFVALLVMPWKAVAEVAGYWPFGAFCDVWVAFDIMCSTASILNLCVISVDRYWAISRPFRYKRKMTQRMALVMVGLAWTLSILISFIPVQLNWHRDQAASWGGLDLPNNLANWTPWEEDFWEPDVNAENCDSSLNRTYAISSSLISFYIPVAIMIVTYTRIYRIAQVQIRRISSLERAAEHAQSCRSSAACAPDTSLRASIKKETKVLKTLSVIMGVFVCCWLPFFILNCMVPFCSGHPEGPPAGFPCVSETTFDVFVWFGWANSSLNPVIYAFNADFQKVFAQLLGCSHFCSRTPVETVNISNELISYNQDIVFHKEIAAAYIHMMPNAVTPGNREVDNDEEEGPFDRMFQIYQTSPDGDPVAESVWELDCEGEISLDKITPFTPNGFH
T4 sequence (P20309 whole entry): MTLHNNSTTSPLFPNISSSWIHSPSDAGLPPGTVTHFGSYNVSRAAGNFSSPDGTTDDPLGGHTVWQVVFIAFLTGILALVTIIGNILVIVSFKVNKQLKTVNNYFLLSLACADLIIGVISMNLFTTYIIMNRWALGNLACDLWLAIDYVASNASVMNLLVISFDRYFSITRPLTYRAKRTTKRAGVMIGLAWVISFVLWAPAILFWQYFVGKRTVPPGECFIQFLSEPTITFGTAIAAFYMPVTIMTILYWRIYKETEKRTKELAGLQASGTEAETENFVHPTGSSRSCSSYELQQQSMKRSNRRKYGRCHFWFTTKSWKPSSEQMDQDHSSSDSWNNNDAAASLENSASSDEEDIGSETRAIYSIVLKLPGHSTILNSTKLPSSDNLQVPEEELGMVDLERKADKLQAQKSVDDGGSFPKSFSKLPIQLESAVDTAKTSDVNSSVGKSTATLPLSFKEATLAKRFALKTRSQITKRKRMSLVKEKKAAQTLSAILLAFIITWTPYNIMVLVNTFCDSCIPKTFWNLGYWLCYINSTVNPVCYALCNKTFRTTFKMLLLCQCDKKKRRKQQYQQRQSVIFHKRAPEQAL
T1 sequence (P41597 whole entry): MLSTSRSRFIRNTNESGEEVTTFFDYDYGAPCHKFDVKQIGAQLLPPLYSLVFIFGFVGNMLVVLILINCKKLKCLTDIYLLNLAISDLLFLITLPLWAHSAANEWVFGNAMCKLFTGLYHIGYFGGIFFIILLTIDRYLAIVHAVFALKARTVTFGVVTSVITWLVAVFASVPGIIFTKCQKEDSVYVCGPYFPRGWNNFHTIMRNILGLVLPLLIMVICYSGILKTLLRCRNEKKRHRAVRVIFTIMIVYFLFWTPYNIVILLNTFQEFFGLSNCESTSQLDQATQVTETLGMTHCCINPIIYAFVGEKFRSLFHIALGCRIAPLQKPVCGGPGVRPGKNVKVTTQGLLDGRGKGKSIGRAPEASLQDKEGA
T5 sequence (P35367 whole entry): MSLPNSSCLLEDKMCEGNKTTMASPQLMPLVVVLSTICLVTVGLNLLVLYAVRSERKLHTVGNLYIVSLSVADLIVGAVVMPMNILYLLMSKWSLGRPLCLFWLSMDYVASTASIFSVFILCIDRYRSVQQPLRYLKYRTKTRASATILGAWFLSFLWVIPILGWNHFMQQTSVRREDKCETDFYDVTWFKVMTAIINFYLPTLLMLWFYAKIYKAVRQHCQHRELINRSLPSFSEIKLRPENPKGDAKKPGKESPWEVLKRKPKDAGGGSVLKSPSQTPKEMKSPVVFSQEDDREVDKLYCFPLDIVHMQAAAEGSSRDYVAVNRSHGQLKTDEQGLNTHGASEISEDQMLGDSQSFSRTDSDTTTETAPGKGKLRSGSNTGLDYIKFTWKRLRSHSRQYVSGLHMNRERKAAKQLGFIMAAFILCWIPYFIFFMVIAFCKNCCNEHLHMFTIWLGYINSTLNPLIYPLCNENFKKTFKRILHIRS

As to `O=C(CCOCCOCCOCCOCCNC(=O)CCc1ccc2n1[B-](F)(F)[N+]1=C(c3ccc[nH]3)C=CC1=C2)NCCCN1CCN(C2=Nc3cc(Cl)ccc3Nc3ccccc32)CC1` [Clozapine-a-2-NB590], the “NanoBRET Fold Response” value in assay [1] (CCR2, 0.1μM tracer) was 1.06; in assay [1] (CCR2, 1μM tracer) it was 0.73; in assay [2] (DRD5, 0.1μM tracer), 2.41; in assay [2] (DRD5, 1μM tracer) it was 2.86; in assay [3] (HCRTR1, 0.1μM tracer) it was 0.89; in assay [3] (HCRTR1, 1μM tracer), 0.98. For the same compound, the “NanoBRET Fold Response” value is 1.06 in assay [4] (CHRM3, 0.1μM tracer); 0.92 in assay [4] (CHRM3, 1μM tracer); 4.67 in assay [5] (HRH1, 0.1μM tracer); 4.78 in assay [5] (HRH1, 1μM tracer); 1.02 in assay [6] (BDKRB1, 0.1μM tracer); 1.37 in assay [6] (BDKRB1, 1μM tracer).
For the compound `CCOC(=O)c1cc(C#N)c(N2CCC(C(=O)NS(=O)(=O)Cc3ccccc3/C=C/C(=O)NCCNC(=O)CCc3ccc4n3[B-](F)(F)[N+]3=C(c5ccc[nH]5)C=CC3=C4)CC2)nc1C` [AZD1283-1-NB590], the “NanoBRET Fold Response” value came out at 0.93 in assay [1] (CCR2, 0.1μM); 1.04 in assay [1] (CCR2, 1μM); 1.02 in assay [2] (DRD5, 0.1μM); 1.13 in assay [2] (DRD5, 1μM); 1.00 in assay [3] (HCRTR1, 0.1μM); 1.09 in assay [3] (HCRTR1, 1μM). Further, the “NanoBRET Fold Response” value in assay [4] (CHRM3, 0.1μM) is given as 1.07; in assay [4] (CHRM3, 1μM), 1.09; in assay [5] (HRH1, 0.1μM), 1.05; in assay [5] (HRH1, 1μM) it was 0.92; in assay [6] (BDKRB1, 0.1μM), 1.05; in assay [6] (BDKRB1, 1μM), 1.04.
In the case of `COc1ccc2[nH]c(-c3ccc(CNC(=O)CCOCCOCCOCCOCCNC(=O)CCc4ccc5n4[B-](F)(F)[N+]4=C(c6ccc[nH]6)C=CC4=C5)cc3)c(CCNC(C)=O)c2n1` [AzomelatoninICO9-2-NB590], the “NanoBRET Fold Response” value in assay [1] (0.1μM tracer) turned out to be 1.23; in assay [1] (1μM tracer), 1.22; in assay [2] (0.1μM tracer), 1.14; in assay [2] (1μM tracer), 0.93; in assay [3] (0.1μM tracer) it was 0.60; in assay [3] (1μM tracer), 0.95. For the same compound, the “NanoBRET Fold Response” value in assay [4] (0.1μM tracer) is reported as 0.95; in assay [4] (1μM tracer), 1.01; in assay [5] (0.1μM tracer) it was 0.94; in assay [5] (1μM tracer), 0.89; in assay [6] (0.1μM tracer) it was 1.31; in assay [6] (1μM tracer), 1.20.
For the compound `CCCn1c(=O)c2[nH]c(-c3ccc(OCC(=O)NCCNC(=O)CCOCCNC(=O)c4ccc(CNC(=O)CCc5ccc6n5[B-](F)(F)[N+]5=C(c7ccc[nH]7)C=CC5=C6)cc4)cc3)nc2n(CCC)c1=O` [XAC-3-NB590], the “NanoBRET Fold Response” value was determined as 1.08 in assay [1] (CCR2, tracer 0.1μM); 1.61 in assay [1] (CCR2, tracer 1μM); 0.99 in assay [2] (DRD5, tracer 0.1μM); 1.00 in assay [2] (DRD5, tracer 1μM); 0.91 in assay [3] (HCRTR1, tracer 0.1μM); 0.88 in assay [3] (HCRTR1, tracer 1μM). The “NanoBRET Fold Response” value was determined as 0.90 in assay [4] (CHRM3, tracer 0.1μM); 1.29 in assay [4] (CHRM3, tracer 1μM); 0.95 in assay [5] (HRH1, tracer 0.1μM); 1.24 in assay [5] (HRH1, tracer 1μM); 0.91 in assay [6] (BDKRB1, tracer 0.1μM); 0.94 in assay [6] (BDKRB1, tracer 1μM).
Consider `COc1ccccc1N1CCN(CCCCN2C(=O)c3ccc(CNC(=O)CCOCCNC(=O)c4ccc(CNC(=O)CCc5ccc6n5[B-](F)(F)[N+]5=C(c7ccc[nH]7)C=CC5=C6)cc4)cc3C2=O)CC1` [NAN-190-3-NB590], for which the “NanoBRET Fold Response” value in assay [1] (CCR2, tracer 0.1μM) was found to be 0.82; in assay [1] (CCR2, tracer 1μM), 0.94; in assay [2] (DRD5, tracer 0.1μM), 1.05; in assay [2] (DRD5, tracer 1μM) it was 1.42; in assay [3] (HCRTR1, tracer 0.1μM), 0.98; in assay [3] (HCRTR1, tracer 1μM) it was 0.91. Besides, the “NanoBRET Fold Response” value is 1.10 in assay [4] (CHRM3, tracer 0.1μM); 1.12 in assay [4] (CHRM3, tracer 1μM); 2.18 in assay [5] (HRH1, tracer 0.1μM); 1.84 in assay [5] (HRH1, tracer 1μM); 0.84 in assay [6] (BDKRB1, tracer 0.1μM); 1.05 in assay [6] (BDKRB1, tracer 1μM).
In the case of `COc1ccccc1N1CCN(CCCCN2C(=O)c3ccc(CNC(=O)CCOCCOCCOCCOCCNC(=O)CCc4ccc5n4[B-](F)(F)[N+]4=C(c6ccc[nH]6)C=CC4=C5)cc3C2=O)CC1` [NAN-190-2-NB590], the “NanoBRET Fold Response” value in assay [1] (CCR2, tracer 0.1μM) is given as 1.04; in assay [1] (CCR2, tracer 1μM), 1.00; in assay [2] (DRD5, tracer 0.1μM), 1.02; in assay [2] (DRD5, tracer 1μM), 1.21; in assay [4] (CHRM3, tracer 1μM) it was 0.99; in assay [5] (HRH1, tracer 0.1μM) it was 2.49. The “NanoBRET Fold Response” value was 2.31 in assay [5] (HRH1, tracer 1μM); 1.05 in assay [6] (BDKRB1, tracer 0.1μM); 1.06 in assay [6] (BDKRB1, tracer 1μM).
Turning to `CN(C)CCC=C1c2ccccc2CCc2ccc(C(=O)NCCNC(=O)CCOCCOCCOCCOCCNC(=O)CCc3ccc4n3[B-](F)(F)[N+]3=C(c5ccc[nH]5)C=CC3=C4)cc21` [Amitriptyline-b-2-NB590], the “NanoBRET Fold Response” value in assay [1] (tracer at 0.1μM) is on record as 0.99; in assay [1] (tracer at 1μM), 0.89; in assay [2] (setting [7]), 1.08; in assay [2] (setting [8]), 1.42; in assay [3] (setting [7]) it was 1.08; in assay [3] (setting [8]), 0.91. Besides, the “NanoBRET Fold Response” value stood at 1.14 in assay [6] (setting [7]) and 1.33 in assay [6] (setting [8]).
